Like-named read-outs stand apart in the source and are kept apart here.
Experiments:
[1] = test system: A/Hong Kong/213/2003 (H5N1); test: microbe, parasite or virus in culture; conditions: Influenza A virus, H5N1, MDCK, read-out: IC50, Visual Assay
in vitro [2] = conditions: dog, CC50, Visual Assay
[3] = test system: influenza A/Vietnam/1203/2004 H5N1 virus; conditions: in vivo
[4] = test system: A/Thailand/2(Kan-1)/16/2004 (H5N1)
[5] = mouse, in vivo
[6] = test system: A/Hong Kong/213/2003 (H5N1)
[7] = test system: Influenza A/Vietnam/1203/2004 (H5N1); test: microbe, parasite or virus in culture; conditions: H5N1, MDCK, read-out: IC50, Neutral Red Uptake Assay
[8] = test system: Influenza A/Vietnam/1203/2004 (H5N1); test: microbe, parasite or virus in culture; conditions: H5N1, MDCK, read-out: IC50, Visual Assay
[9] = test system: A/Thailand/2(Kan-1)/16/2004 (H5N1); test: microbe, parasite or virus in culture; assay type: cell-based; conditions: Influenza A virus, H5N1, MDCK, read-out: IC90, VYR Assay
[10] = test system: Influenza A/Vietnam/1203/2004 (H5N1); test: microbe, parasite or virus in culture; assay type: cell-based; conditions: H5N1, MDCK, read-out: IC90, VYR Assay
[11] = test system: A/Hong Kong/213/2003 (H5N1); remark: listed apart in the source
[12] = test system: A/Thailand/2(Kan-1)/16/2004 (H5N1); remark: listed apart in the source
[13] = test system: A/Hong Kong/213/2003 (H5N1); test: microbe, parasite or virus in culture; assay type: cell-based; conditions: Influenza A virus, H5N1, MDCK, read-out: IC90, VYR Assay
in vitro [14] = conditions: dog, CC50, Neutral Red Uptake Assay
[15] = test system: A/Thailand/2(Kan-1)/16/2004 (H5N1); test: microbe, parasite or virus in culture; conditions: Influenza A virus, H5N1, MDCK, read-out: IC50, Neutral Red Uptake Assay
[16] = test system: A/Hong Kong/213/2003 (H5N1); test: microbe, parasite or virus in culture; conditions: Influenza A virus, H5N1, MDCK, read-out: IC50, Neutral Red Uptake Assay
[17] = test system: A/Thailand/2(Kan-1)/16/2004 (H5N1); test: microbe, parasite or virus in culture; conditions: Influenza A virus, H5N1, MDCK, read-out: IC50, Visual Assay
MDCK cells [18] = test system: MDCK cells
[19] = test system: Influenza A/Vietnam/1203/2004 (H5N1)
MDCK cells [20] = test system: MDCK cells; remark: listed apart in the source
[21] = test system: Influenza A/Vietnam/1203/2004 (H5N1); remark: listed apart in the source
influenza virus = conditions: mouse, in vivo, sc; cited from earlier work
influenza viruses = test: microbe, parasite or virus in culture; assay type: cell-based, influenza A and B viruses; conditions: Influenza A virus, read-out: IC50 values, range
influenza virus (H1N1) = conditions: read-out: EC50, influenza virus replication in MDCK cells; cited from earlier work

SMILES | IC50 [1] [µM] | SI (CC50/IC50), Visual Assay [4] | SI (CC50/IC50), Neutral Red Uptake Assay [6] | IC50 [7] [µM] | IC50 [8] [µM] | SI (CC50/IC50), Visual Assay [11] | SI (CC50/IC50), Neutral Red Uptake Assay [12] | IC50 [15] [µM] | IC50 [16] [µM] | IC50 [17] [µM] | SI (CC50/IC50), Neutral Red Uptake Assay [19] | SI (CC50/IC50), Visual Assay [21] | also measured
Nc1nc(=O)n([C@H]2C[C@H](O)[C@@H](CO)O2)cc1F [2'-deoxy-5-fluorocytidine] | > 100 | 0 ± 0 | 0 ± 0 | 0.09 ± 0.1 | 0.19 ± 0.03 | 0 ± 0 | 0 ± 0 | > 100 | > 100 | > 100 |  |  | CC50 (in vitro [2]): > 100 µM; Inhibition in the H5N1 mouse model [3]: not inhibitory; Toxicity in the H5N1 mouse model [3]: very toxic; Promotion of survival of infected mice ([3]; mouse): not very effective; Protection from death, i.p. ([3]; mouse): not shielded from death; Tolerability [5]: well- tolerated; Toxicity in mice [5]: considerable toxicity in the form of severe weight loss; IC90 [9]: > 100 µM; IC90 [10]: 0.13 µM; IC90 [13]: > 100 µM; CC50 (in vitro [14]): > 100 µM
[N-]=[N+]=N[C@@H]1[C@H](O)[C@@H](COP(=O)(O)OP(=O)(O)OP(=O)(O)O)O[C@H]1n1ccc(N)nc1=O [2’-azido-2’-deoxycytidine, 2'-azido-2'-deoxyctidine-5'-triphosphate] |  | 0 ± 0 | 0 ± 0 |  |  | 0 ± 0 | 0 ± 0 |  |  |  | > 2030 |  | CC50, Neutral Red Uptake Assay (MDCK cells [18]): >100 ± 0 µM; CC50, Visual Assay (MDCK cells [20]): >100 ± 0 µM
Nc1ncnc2c1ncn2[C@@H]1O[C@H](CO)[C@@H](O)[C@H]1F [2’-deoxy-2’-fluoroadenosine] | > 100 | 0 | 0 | > 100 | > 100 | 0 | 0 | > 100 | > 100 | > 100 | 0 | 0 | 
Nc1nc2c(ncn2[C@@H]2O[C@H](CO)[C@@H](O)[C@H]2F)c(=O)[nH]1 [2’-deoxy-2’-fluoroguanosine] | 8.5 | 0 |  | 8.6 | 21 | >12 |  |  |  | > 100 | >12 | >4.8 | Mice protected from death (influenza virus): 50%; IC50 (influenza viruses): 8.5 to 21 µM; EC50 (influenza virus (H1N1)): 18.2 µM
O=c1ccn([C@@H]2O[C@H](CO)[C@@H](O)[C@H]2F)c(=O)[nH]1 [2’-deoxy-2’-fluorouridine] |  | 0 |  | > 100 | > 100 |  |  |  |  | > 100 | 0 | 0 | 
Nc1ccn([C@@H]2O[C@H](CO)[C@@H](O)[C@H]2I)c(=O)n1 [2’-iodo-2’-deoxycytidine] | > 100 | 0 | 0 | > 100 | > 100 | 0 | 0 | > 100 | > 100 | > 100 | 0 | 0 | 
